Where “and” joins values, the source holds several entries; their conditions need not be identical. Identical values can stand only once.
How the values were obtained:
ovariectomised rats [1] = assay: Hot flush model: tail skin temperature after naloxone withdrawal in morphine-addicted ovariectomised rats; type: in vivo, rat; details: vehicle rats 5-6° C. elevation
Protocol: (§1) Virgin adult cycling Sprague-Dawley rats weighing 300-350 g (Example 4) and 190-210 g (Example 5) and with regular 4-day oestrous cycles were used (Möllegaard, Denmark). The rats were housed 4 to each cage with free access to pelleted food and tap water at 22° C. and with a 12 h light/12 h dark cycle for at least 1 week before and throughout the experimental period.
In this study, ovariectomised rats (300-350 g) were treated with oxytocin for 8 days subcutaneously. Rats were addicted to morphine by implanting a morphine pellet (75 mg each) subcutaneously on days 3 and 5 of treatment. On the last day of treatment, an infrared thermistor was placed above the tail of each animal and morphine addiction was withdrawn by naloxone injection (1.0 mg/kg, subcutaneously). Temperature measurements were taken for 1 h under ketamine (80 mg/kg. intramuscularly) anaesthesia.

ovariectomised rats [2] = assay: Subcutaneous oxytocin combined with hormone treatment in ovariectomised rats, plasma corticosterone and GH; type: in vivo, rat; details: oxytocin 1 mg/kg s.c. five days, FIG. 2
Description: FIG. 2 is a bar graph showing the plasma concentrations of corticosterone and growth hormone (GH) in ovariectomised rats subjected to subcutaneous treatment. Group A refers to rats treated with oestrogen, progesterone, and oxytocin. Group B refers to rats treated with oestragen and progesterone. Group C refers to rats treated with oxytocin. Group D refers to rats treated with saline.
(§2) Female sexually mature Sprague-Dawley rats weighing 250-300 g were used (B & K Universal Sollentuna, Sweden). The rats were housed 5 to each cage with free access to food and tap water at 20±2° C. and with a 12 h light/12 h dark cycle for at least 3 weeks before and throughout the experimental period.
In another experimental animal study, the effect of oxytocin (1 mg/kg given subcutaneously during five days) combined with hormone treatment was investigated. All treatment groups A-D each contained eight ovariectomised rats. […] Analogously to the insulin levels, the corticosterone and GH levels were normalised (but increased) by oxytocin treatment.

[3] = test system: postmenopausal women with atrophic, ulcerous vaginal mucous membranes; assay: Intravaginal oxytocin administration to postmenopausal women (seven women, inspection by gynaecologist); type: in vivo, human; details: oxytocin 1 mg/ml mixed with 1 ml cellulose gel intravaginally
Protocol: Seven women at an age of 60-70 years, otherwise completely healthy, with expressed postmenopausal disorders in the form of white, thin, atrophic, easy-bleeding and ulcerous vaginal mucous membranes were included in the study. They were treated with oxytocin 1 mg/ml mixed with 1 ml cellulose gel intravaginally driving five consecutive days,
The treatment was effected by a gynaecologist who inspected the mucous membranes. After a treatment lasting 2-3 days, the mucous membranes had improved in that they looked like those in a female woman.
At the same time, it was observed that the mood of the women was improved. They seemed obviously happy and reported that they felt happy, and many of them had resumed their sex lives.

ovariectomised rats [4] = assay: Tail-flick test in ovariectomised rats after intravaginal oxytocin; type: in vivo, rat; details: tails in water at 51° C.; intravaginal oxytocin versus saline; FIG. 4
Protocol: One way of applying somatic discomfort to an organism is to subject a part of it to a high temperature. This relief effect of oxytocin was investigated in a tail-flick test. In this test the tails of ovariectomised rats were immersed in water at 51° C. With reference to FIG. 4, the latency time from the immersion of the tails to the withdrawal thereof were measured for rats treated with oxytocin (▴) and rats treated with saline (□). For each group of rats, the test sessions were accomplished three times with a period of 15 minutes between the sessions. […] A longer latency time means that the rat could stand the somatic discomfort better such as increased temperature ta it otherwise would do.

[5] = test system: rats with experimentally-induced polycystic ovaries; assay: Oestradiol valerate induced polycystic ovaries (PCO) in rats, NGF and ovarian morphology; type: in vivo, rat; details: oxytocin 1.0 mg/kg subcutaneously every third day
Protocol: as §1
Statistical analyses were carried out using the SPSS 8.0 software. NGF concentrations in the pituitary gland, the hypothalamus, the hippocampus, the ovary, and the adrenal glands were analysed and the groups compared using analyses of variance (ANOVA) followed by multiple comparison procedures Bonferroni test).
All rats (totally 59) received a single intramuscular injection either of oestradiol valerate (EV), oil, or 0.15 M NaCl (Kabi Pharmacia AB, Sweden) and were anaesthetised with enflurane. Twenty rats re injected with 4 mg EV in 0.2 ml oil/rat (ten rats in the control group and ten in the oxytocin treated). They were decapitated after 30 days to elucidate when the ovaries display characteristic features of well-defined PCO (Brawer et al., 1978, Supra; Brawer et al., 1986, supra). The oxytocin treated group received subcutaneous oxytocin 1.0 mg/kg subcutaneously every third day during the experimental period.

[6] = test system: women two years into menopause with vaginal rash, pain and dryness; assay: Double blind intravaginal oxytocin gel versus cellulose gel in 20 menopausal women, biopsy and interview; type: in vivo, human
Protocol: Besides, a further experiment was conducted, wherein 20 women, all of them at two years into menopause and otherwise healthy. None of them underwent hormone replacement therapy. All patients had objective and subjective symptoms of vaginal rash, pain and a feeling of dryness.
Ten patents were treated with oxytocin 1 mg/ml mixed with 1 ml close gel intravaginally during five consecutive days, whereas the remaining ten patients were treated with 1 ml cellulose gel intravaginally dog five consecutive days as control. Before treatment with either control or oxytocin gel we took a biopsy, this procedure was repeated after 5 days of treatment. The protocol was a double blind protocol, ie the microscopic evaluations were performed by the same experienced pathologist before the code was broken.

ovariectomised rats [7] = assay: Weight change in ovariectomised rats given subcutaneous oxytocin; type: in vivo, rat
Protocol: as §2
A rat having its ovaries removed also gains weight compared to untreated rats.

ovariectomised rats [8] = assay: Subcutaneous oxytocin administration to ovariectomised rats, endocrine study; type: in vivo, rat; details: 1 mg/kg subcutaneously during five days
Protocol: as §2
Ovariectomy means removal of an ovary or ovaries and can eg be effected according to Merchentaler, I., Funkhouser, J. M., Carver, J. N, Lundeen, S. G., Ghosh, K, Winneker, R. C. The effect of estrogens and antiestrogens in a rat model for hot flush. Maturitas, Nov 16, 1998; 30(3): 307-316.
In an experimental animal study, eight ovariectomised rats were treated with oxytocin. The ovaries were removed in order to create a menopause-like situation. After a mouth, an endocrine study was made. The “menopausal” rats get a changed hormone balance. Their insulin levels and, to a certain extent their blood sugar levels rise, possibly in consequence of increased insulin resistance. Their cortisol and growth hormone levels decrease, which expresses an inability to mobilise calories for activity. An oxytocin treatment during five days (1 mg/kg given subcutaneously during five days) restored the hormone balance.

ovariectomised rats [9] = assay: Forward locomotion of ovariectomised rats after intravaginal oxytocin gel; type: in vivo, rat; design: forward locomotion, Minutes 1-15 / forward locomotion, Minutes 16-30 / forward locomotion, Minutes 1-30 / forward locomotion, Minutes 1-15, AVERAGE / forward locomotion, Minutes 16-30, AVERAGE / forward locomotion, Minutes 1-30, AVERAGE: unit not given here
Protocol: as §2
The ovaries of seven female rats were removed. After 2 weeks, the rats were treated with oxytocin gel given intravaginally (conc. 1 mg/ml). […] Most probably, there is an activation of nerves present in the vaginal mucous membrane.
The total experimental time is 30 minutes per rat, and the values in table I show the forward locomotion for the first 15 minutes, for the whole experimental time, and for the last 15 minutes.

ovariectomized rats = assay: Bone loss in ovariectomized rats, densitometric and morphometric studies; type: in vivo, rat
Protocol: Four lots of 120-day-old female Wistar rats (mean±SD initial weight 273±28 g) were used. The rats were randomized into groups based on their body weight. […] Sample size was calculated in a pilot study after determining the variability of densitometric measurements.
All rats were fed standard chow feed containing 7.1 g/kg of calcium and 5 g/kg of phosphorus; the energy content of the feed was 3100 kcal/kg. A control group of 15 rats were not manipulated but fed the stud diet (control group, mean initial weight 269±31 g). A experimental group of 15 rats was ovariectomized at 120 days of life and given oxytocin for 10 days 1.0 mg/kg sc. (OVX+Oxy group, mean initial weight 277±32 g). A group of 15 rats underwent ovariectomy (OVX group, mean initial weight 282±27 g). […] The ovariectomy was performed as in previous studies [Rico H, Amo C, Revilla M, Arribas I, Gonzalez-Riola J, Villa L F, Rodriguez-Puyol M Etidronate versus Clodronate in the prevention of postovariectomy bone loss. An experimental study in rats. Clin Exp Rheumatol 1994, 12:301-304]. The manipulated rats were controlled to observe the development of intestinal function, alterations, and infection or dehiscence of surgical sutures. All rats received water ad libitum. The rats were kept for 30 days in the animal laboratory of department of Physiology and Pharmacology, Karolinska Institutet Living conditions (12 hours of light and 12 hours of darkness; mean room temperature 22° C.), habitat, and diet met current guidelines of the European Union. Weight was measured with a precision biomedical balance.
Densitometric and Morphometric Studies. After 30 days, all rats were anesthetized and killed by exsanguination from the abdominal aorta after being anesthetized with 4 mg/100 g body weight of sodium pentothal. The femur and 5th lumbar vertebra of rat were dissected and placed in an 85° C. water bath to remove soft tissue. Femoral length and vertebral height were measured with a caliper and bones were weighed on a precision balance. The BMC and BMD of the whole right femur and 5th lumbar vertebra were measured using a desitometer equipped with a special program for studying small […] and samples. The instrument was calibrated daily. Because of the influence of weight on bone mass in rate [Rico H, Amo C, Revilla M, Arribas I, Gonzalez-Riola J, Villa L F, Rodriguez-Puyol M Etidronate versus Clodronate in the prevention of postovariectomy bone loss. An experimental study in rats. Clin Exp Rheumatol 1994, 12:301-304] and human beings [Rico H, Revilla M, Villa L F, Alvarez de Buergo M A, Ruiz-Contreras D Determinants of total and regional bone mineral content and density in postpubertal normal women. Metabolism 1994, 43 :263-266], BMC was corrected for final body weight (BMC/BW). The BMC and BMD of the femurs and 5th lumbar vertebra were measured separately.

[10] = individual rats R1-R7, oxytocin gel 1 mg/ml intravaginally
[11] = ovariectomized rats, oxytocin 1.0 mg/kg sc for 10 days, after 30 days, mean ± SD

Compound: C#C[C@]1(O)CC[C@H]2[C@@H]3CCc4cc(O)ccc4[C@H]3CC[C@@]21C [17-alpha-ethinyloestradiol]
- tail skin temperature increase (flashes) after naloxone (ovariectomised rats [1]; 0.1 m g subcutaneous): significantly inhibited

Compound: oxytocin
- plasma GH levels (ovariectomised rats [2]; compared with saline treated rats, eight rats per group): significantly higher
- plasma corticosterone levels (ovariectomised rats [2]; compared with rats treated with oestrogen+progesterone): significantly higher
- mood of the women [3]: improved
- treatment time until mucous membranes had improved [3]: 2 to 3 days
- ulcers of vaginal mucous membranes ([3]; after 2-3 days): all ulcers had disappeared
- state of vaginal mucous membranes on inspection ([3]; five consecutive days, seven women 60-70 years): improved
- tail-flick latency time (immersion to withdrawal) (ovariectomised rats [4]): increases the latency time
- concentrations of NGF in the ovaries ([5]; 30 days, compared to non-oxy-treated PCO rats): significantly lower
- ovarian morphology (PCO changes) ([5]; versus EV control group): significantly less changes
- tail skin temperature increase (flashes) after naloxone (ovariectomised rats [1]; repeated oxytocin 1.0 mg/kg subcutaneous for 8 days): significantly inhibited
- inflammation in histology (biopsy) ([6]; after 5 days of treatment): no or a lesser degree of inflammation
- histology of vaginal epithelium (biopsy) ([6]; after 5 days of treatment, except cases with normal epithelium before treatment): normalization of the epithelium
- subjective relief in interviews ([6]; oxytocin 1 mg/ml in 1 ml gel intravaginally, five days, ten patients, versus cellulose gel control): expressed relief
- food intake (ovariectomised rats [7]; oxytocin for 10 days): do not eat less
- weight gain after ovariectomy (ovariectomised rats [7]; oxytocin for 10 days subcutaneously, versus saline controls, FIG. 3): do not gain weight as much
- blood sugar levels (ovariectomised rats [8]; compared to NaCl controls): normalised
- plasma insulin levels (ovariectomised rats [8]; compared to control rats treated with NaCl, FIG. 1): normalised ie lowered
- forward locomotion, Minutes 1-30, AVERAGE (ovariectomised rats [9]; average of 7 rats (SD 1.36), control average 24.71, T-test 0.03*): 26.91
- forward locomotion, Minutes 1-15, AVERAGE (ovariectomised rats [9]; average of 7 rats (SD 1.81), control average 27.10, T-test 0.04*): 30.20
- forward locomotion, Minutes 16-30, AVERAGE (ovariectomised rats [9]; average of 7 rats (SD 2.86), control average 18.33, T-test 0,44 ns): 20.13
- forward locomotion, Minutes 1-30 (ovariectomised rats [9]; [10]): 27.7 (2×) and 25.3 and 25.1 and 26.3 and 28.7 and 27.6
- forward locomotion, Minutes 16-30 (ovariectomised rats [9]; [10]): 20.3 and 19.8 and 17.7 and 23.2 and 21.6 and 15.3 and 23
- forward locomotion, Minutes 1-15 (ovariectomised rats [9]; individual rats R1-R7, oxytocin gel 1 mg/ml intravaginally, two days after completed treatment): 30.7 and 27.8 and 28.8 and 28.6 and 32.2 and 32.3 and 31
- behaviour changes (motor activity such as forward locomotion) (ovariectomised rats [9]; two days after completed intravaginal treatment, compared to gel without oxytocin): increased motor activity
- F-BMC (femur bone mineral content) (ovariectomized rats; [11]): 335 ± 37 mg
- F-BMC/BW (femur BMC corrected for final body weight) (ovariectomized rats; [11]): 1.12 ± 0.09 mg/g
- F-BMD (femur bone mineral density) (ovariectomized rats; [11]): 131 ± 18 mg/cm^2
- Femur (femoral length) (ovariectomized rats; [11]): 35.5 ± 1.3 mm
- Femur (weight) (ovariectomized rats; [11]): 712 ± 42 mg
- V-BMC (5th lumbar vertebral bone mineral content) (ovariectomized rats; [11]): 110 ± 16 mg
- V-BMD (5th lumbar vertebral bone mineral density) (ovariectomized rats; [11]): 107 ± 13 mg/cm^2
- Vertebra (5th lumbar vertebra weight) (ovariectomized rats; [11]): 273 ± 32 mg
- Vertebra (5th lumbar vertebral height) (ovariectomized rats; [11]): 6.9 ± 0.6 mm
- Final weight (ovariectomized rats; ovariectomized rats, oxytocin 1.0 mg/kg sc for 10 days, after 30 days, mean ± SD, 15 rats): 334 ± 31 g
- bone loss in ovariectomized rats (ovariectomized rats; oxytocin treatment for 10 days): suppresses bone loss

From patent publication US20040029787A1, “Use of substances with oxytocin activity against climacteric disorders” (priority 2000, published 2004)
